Experimental data published in US20190099394A1, “METHODS OF IMPROVING MOTOR FUNCTION USING KETONE SUPPLEMENTATION” (priority 2016, published 2019).

How the values were obtained:
[1] = system: glucose transporter type 1 (G1D)-deficient mice; assay: rotarod test, G1D mice; assay type: in vivo; settings: for motor performance on the rotarod test: 6 weeks of feeding
Description: (§1) A group of 48 G1D mice, aged 2-5 months old, were fed for 10 weeks with either a standard rodent diet (SD), a ketogenic diet (KD), a standard diet supplemented with 10% ketone ester (SD+KE) or a standard diet supplemented with 20% ketone mineral salt (SD+KS).

[2] = system: WAG/Rij rats; assay: accelerated rotarod test, WAG/Rij rats; assay type: in vivo, rat; settings: 2.5 g/kg total oral gavage daily for 7 days, about 45 minutes after treatment, FIG. 6 and FIG. 7
Procedure: WAG/Rij rats were first acclimated to oral gavage with administration of tap water once daily for a period of 3 days. About 45 minutes after the water gavage on the third day, the animals performed the accelerated rotarod test to establish a baseline. After three trials on the rotarod, blood samples were taken to measure baseline glucose and ketone body levels (blood samples were collected about 60 minutes after the gavage).
One day later, the rats were divided into 6 groups, and given an oral gavage supplement selected from water, the ketone ester 1,3-butanediol-acetoacetate diester (KE), the ketone ester with medium chain triglyceride (KEMCT), the ketone salt β-hydroxybutyrate mineral salt (KS), the ketone salt with medium chain triglyceride (KSMCT), or a combination of the ketone ester and the ketone salt (KEKS) (Table 3). Supplements containing the ketone ester or the ketone salt alone were provided at a dose of 2.5 g/kg of body weight. For supplements containing two components (e.g., a ketone ester with MCT, a ketone salt with MCT, a ketone ester with a ketone salt), each component was provided at a dose of 1.25 g/kg of body weight (for a total dosage of 2.5 g/kg). The animals were treated every day for 7 days.
About 45 minutes after the 7th treatment, the rats were evaluated on the accelerated rotarod test. […]

[3] = system: Sprague-Dawley rats; assay: accelerating rotarod test, four month old Sprague-Dawley rats; assay type: in vivo, rat; settings: for motor function (accelerating rotarod) compared to the control group: 5 g/kg once daily oral gavage or diet, at both 24 hours and 7 days after dietary treatment, FIG. 1; for time able to remain on the rotarod relative to controls fed a standard diet only: 24 hours and 7 days, FIG. 2
Description: Four month old Sprague-Dawley rats were first acclimated to oral gavage with administration of tap water once daily for a period of 5 days. The rats were then divided into 5 groups, and fed either a standard diet (SD), a ketogenic diet (KD), or a standard diet supplemented with a once daily oral gavage of a ketone supplement (Table 1). The ketone supplement was selected from the ketone ester 1,3-butanediol-acetoacetate diester (SD+KE), the ketone salt β-hydroxybutyrate mineral salt (SD+KS), or β-hydroxybutyrate mineral salt and a medium chain triglyceride (SD+KSMCT). Ketone supplements were provided at a dose of 5 g/kg of body weight. Each group of animals was maintained on the respective diets for 7 days. The animals were evaluated for motor performance prior to the beginning of dietary treatment, 24 hours after treatment, and after 7 days of dietary treatment.
Motor performance was evaluated using the accelerating rotarod test on a Rota Rod
Rotamex 5 (Columbus Instruments). The rats were placed on the rod of the accelerating rotarod and the time the animals remained on the rod was measured; the rotarod was set to accelerate to 40 rpm over 180 seconds. Prior to the administration of a test, animals were trained on the rotarod for 5 consecutive days. Each day of training consisted of 3 trials, with a 2 minute rest period between each trial. Animals were placed on the rotarod and timed until they fell from the rotating rod.
The ketone ester, 1,3-butanediol-acetoacetate diester, was synthesized as previously described (Agostino et al., Am J Physiol; 304(10): R829-R836 (2013)). The ketone salt, β-hydroxybutyrate mineral salt (Na^+/K^+-βHB mineral salt) was mixed into a 50% solution by adding approximately 375 mg/g of pure βHB with 125 mg/g of Na^+/K^+. Accordingly, each dose of the mineral salt was equal to about 1000-1500 mg of βHB, depending on the weight of the animal. Both the ketone ester and the ketone salt were developed and synthesized in collaboration with SavInd, Inc. Pharmaceutical grade medium chain triglyceride (MCT) oil (about 65% caprylic triglyceride) was purchased from Now Foods (Bloomingdale, Ill., USA). MCT was mixed in a 1:1 ratio with β-hydroxybutyrate mineral salt to obtain a ketone salt with MCT, and in a 1:1 ratio with 1,3-butanediol-acetoacetate diester to obtain […] with MCT.

[4] = system: glucose transporter type 1 (G1D)-deficient mice; assay: hanging wire test, G1D mice; assay type: in vivo; settings: fed for 10 weeks, FIG. 9
Description: as §1

Compound | motor performance on the rotarod test [1] | performance on the rotarod test vs baseline levels ([1]; by 4 weeks of feeding, FIG. 8) | motor function (accelerated rotarod) [2] | motor function (accelerating rotarod) compared to the control group [3] | time able to remain on the rotarod relative to controls fed a standard diet only [3] | motor function on the rotarod test ([1]; 10 weeks of feeding) | course of improvement on the hanging wire test [4] | strength endurance (hanging wire test) [4]
CC(=O)CC(=O)OCCC(C)OC(=O)CC(C)=O (stereo not drawn) [ketone ester, 1,3-butanediol-acetoacetate diester] | increase in motor performance | significant increase in performance on the rotarod test | not sufficient to improve motor function | improvement in motor function | able to remain on the rotarod for longer periods of time |  |  | 
β-hydroxybutyrate mineral salt [ketone salt] | increase in motor function |  | not sufficient to improve motor function | improvement in motor function | able to remain on the rotarod for longer periods of time | increase in motor function | rapid improvement beginning at week 1 | improved
